Results on 25 compounds are retold here after US20240239772A1, “PROTEASE INHIBITORS AND METHODS OF USE” (The Cleveland Clinic Foundation, priority 2021, published 2024).

In this assay the target is SARS-CoV-2 3CLpro (Severe acute respiratory syndrome coronavirus 2 (2019-nCoV) (SARS-CoV-2), UniProt P0DTD1). As to the kind of experiment: biochemical. The settings on record: read-out: SARS-CoV-2 IC50. Type of assay: biochemical.
With `COC(=O)Cc1ccc(N(Cc2cc(F)cc(F)c2)C(=O)Cn2nnc3ccccc32)cc1` [Compound 92, methyl 2-[4-[[2-(benzotriazol-1-yl)acetyl]-[(3,5-difluorophenyl)methyl]amino]phenyl]acetate], the IC50 amounted to 1800 nM.

Regarding `O=C(O)Cc1ccc(N(Cc2cc(F)cc(F)c2)C(=O)Cn2nnc3ccccc32)cc1` [Compound 93, 2-[4-[[2-(benzotriazol-1-yl)acetyl]-[(3,5-difluorophenyl)methyl]amino]phenyl]acetic acid], the half-maximal inhibitory concentration (IC50) worked out at 23000 nM.

For the compound `NC(=O)Cc1ccc(N(Cc2cc(F)cc(F)c2)C(=O)Cn2nnc3ccccc32)cc1` [Compound 94, 2-[4-[[2-(benzotriazol-1-yl)acetyl]-[(3,5-difluorophenyl)methyl]amino]phenyl]acetamide], the IC50 was 670 nM.

For `O=C(Cn1nnc2ccccc21)N(Cc1ccnc(C(F)(F)F)c1)c1ccc(-c2c[nH]cn2)cc1` [Compound 95, 2-(benzotriazol-1-yl)-N-[4-(1H-imidazol-4-yl)phenyl]-N-[[2-(trifluoromethyl)-4-pyridyl]methyl]acetamide], the IC50 came out at 2900 nM.

As to `O=C(Cn1nnc2ccccc21)N(Cc1cncc(C(F)(F)F)c1)c1ccc(-c2c[nH]cn2)cc1` [Compound 96, 2-(benzotriazol-1-yl)-N-[4-(1H-imidazol-4-yl)phenyl]-N-[[5-(trifluoromethyl)-3-pyridyl]methyl]acetamide], the IC50 came to 350 nM.

`O=C(Cn1nnc2ccccc21)N(Cc1cncc(F)c1)c1ccc(-c2c[nH]cn2)cc1` [Compound 97, 2-(benzotriazol-1-yl)-N-[(5-fluoro-3-pyridyl)methyl]-N-[4-(1H-imidazol-4-yl)phenyl]acetamide]: the concentration for half-maximal inhibition (IC50) is 130 nM.

As to `O=C(Cn1nnc2ccccc21)N(Cc1c(F)cccc1F)c1ccc(-c2c[nH]cn2)cc1` [Compound 98, 2-(benzotriazol-1-yl)-N-[(2,6-difluorophenyl)methyl]-N-[4-(1H-imidazol-4-yl)phenyl]acetamide], the IC50 is 980 nM.

For the compound `O=C(Cn1nnc2ccccc21)N(Cc1cc(F)cc(F)c1)c1ccc(CCO)cc1` [Compound 99, 2-(benzotriazol-1-yl)-N-[(3,5-difluorophenyl)methyl]-N-[4-(2-hydroxyethyl)phenyl]acetamide], the IC50 turned out to be 460 nM.

For `O=C(Cn1nnc2ccccc21)N(Cc1cc(F)cc(F)c1)c1ccc(-c2ncc[nH]2)cc1` [Compound 100, 2-(benzotriazol-1-yl)-N-[(3,5-difluorophenyl)methyl]-N-[4-(1H-imidazol-2-yl)phenyl]acetamide], the IC50 stood at 340 nM.

In the case of `O=C1CNCCN1c1ccc(N(Cc2cc(F)cc(F)c2)C(=O)Cn2nnc3ccccc32)cc1` [Compound 101, 2-(benzotriazol-1-yl)-N-[(3,5-difluorophenyl)methyl]-N-[4-(2-oxopiperazin-1-yl)phenyl]acetamide], the IC50 is 3400 nM.

`N#Cc1ccc(N(Cc2cc(F)cc(F)c2)C(=O)Cn2nnc3ccccc32)cc1` [Compound 102, 2-(benzotriazol-1-yl)-N-(4-cyanophenyl)-N-[(3,5-difluorophenyl)methyl]acetamide]: the IC50 was found to be 4700 nM.

Turning to `O=C(Cn1nnc2ccccc21)N(Cc1ccc(F)cn1)c1ccc(-c2c[nH]cn2)cc1` [Compound 103, 2-(benzotriazol-1-yl)-N-[(5-fluoro-2-pyridyl)methyl]-N-[4-(1H-imidazol-4-yl)phenyl]acetamide], the IC50 worked out at 9500 nM.

Take `Cc1nc(-c2ccc(N(Cc3cc(F)cc(F)c3)C(=O)Cn3nnc4ccccc43)cc2)c[nH]1` [Compound 104, 2-(benzotriazol-1-yl)-N-[(3,5-difluorophenyl)methyl]-N-[4-(2-methyl-1H-imidazol-4-yl)phenyl]acetamide]: the IC50 was determined as 170 nM.

`O=C(Cn1nnc2ccccc21)N(Cc1cc(F)cc(F)c1)c1ccc(-c2c[nH]nn2)cc1` [Compound 105, 2-(benzotriazol-1-yl)-N-[(3,5-difluorophenyl)methyl]-N-[4-(1H-triazol-4-yl)phenyl]acetamide]: the IC50 came out at 180 nM.

On to `O=C(Cn1nnc2ccccc21)N(Cc1cc(F)cc(F)c1)c1ccc(-c2nnc[nH]2)cc1` [Compound 106, 2-(benzotriazol-1-yl)-N-[(3,5-difluorophenyl)methyl]-N-[4-(4H-1,2,4-triazol-3-yl)phenyl]acetamide], for which the IC50 is 940 nM.

As to `NCCc1ccc(N(Cc2cc(F)cc(F)c2)C(=O)Cn2nnc3ccccc32)cc1` [Compound 107, N-[4-(2-aminoethyl)phenyl]-2-(benzotriazol-1-yl)-N-[(3,5-difluorophenyl)methyl]acetamide], the IC50 was determined as 430 nM.

Turning to `O=C(Cn1nnc2ccccc21)N(Cc1cc(F)cc(F)c1)c1ccc(C2CCNC2)cc1` (stereo not shown) [Compound 108, 2-(benzotriazol-1-yl)-N-[(3,5-difluorophenyl)methyl]-N-(4-pyrrolidin-3-ylphenyl)acetamide], the IC50 worked out at 210 nM.

In the case of `O=C1C=C(c2ccc(N(Cc3cc(F)cc(F)c3)C(=O)Cn3nnc4ccccc43)cc2)CN1` [Compound 109, 2-(benzotriazol-1-yl)-N-[(3,5-difluorophenyl)methyl]-N-[4-(5-oxo-1,2-dihydropyrrol-3-yl)phenyl]acetamide], the IC50 worked out at 340 nM.

Consider `COc1ccc(F)cc1CN(C(=O)Cn1nnc2ccccc21)c1ccc(-c2c[nH]cn2)cc1` [Compound 110, 2-(benzotriazol-1-yl)-N-[(5-fluoro-2-methoxy-phenyl)methyl]-N-[4-(1H-imidazol-4-yl)phenyl]acetamide], for which the IC50 turned out to be 200 nM.

With `COc1cc(F)cc(CN(C(=O)Cn2nnc3ccccc32)c2ccc(-c3c[nH]cn3)cc2)c1` [Compound 111, 2-(benzotriazol-1-yl)-N-[(3-fluoro-5-methoxy-phenyl)methyl]-N-[4-(1H-imidazol-4-yl)phenyl]acetamide], the IC50 turned out to be 69 nM.

For the compound `O=C(Cn1ccnn1)N(Cc1cc(F)cc(Cl)c1)c1ccc(-c2c[nH]cn2)cc1` [Compound 112, N-[(3-chloro-5-fluoro-phenyl)methyl]-N-[4-(1H-imidazol-4-yl)phenyl]-2-(triazol-1-yl)acetamide], the half-maximal inhibitory concentration (IC50) was found to be 410 nM.

With `O=C(Cn1ccnn1)N(Cc1cccc(Cl)c1)c1ccc(-c2cn[nH]c2)cc1` [Compound 113, N-[(3-chlorophenyl)methyl]-N-[4-(1H-pyrazol-4-yl)phenyl]-2-(triazol-1-yl)acetamide], the IC50 came to 8200 nM.

Turning to `CC(C)(C)CN(C(=O)Cn1nnc2ccccc21)c1ccc(-c2c[nH]cn2)cc1` [Compound 114, 2-(benzotriazol-1-yl)-N-(2,2-dimethylpropyl)-N-[4-(1H-imidazol-4-yl)phenyl]acetamide], the IC50 was 1600 nM.

Regarding `O=C1CC(c2ccc(N(Cc3cc(F)cc(F)c3)C(=O)Cn3nnc4ccccc43)cc2)CN1` (stereo not shown) [Compound 115, 2-(benzotriazol-1-yl)-N-[(3,5-difluorophenyl)methyl]-N-[4-(5-oxopyrrolidin-3-yl)phenyl]acetamide], the IC50 stood at 240 nM.

As for `O=C(Cn1nnc2ccccc21)N(Cc1ccc(Cl)c(F)c1)c1ccc(-c2c[nH]cn2)cc1` [Compound 116, 2-(benzotriazol-1-yl)-N-[(4-chloro-3-fluoro-phenyl)methyl]-N-[4-(1H-imidazol-4-yl)phenyl]acetamide], the IC50 came out at 2500 nM.

As usually defined, the IC50 is the concentration that gives 50% inhibition.
